Test results as given in PMC10847848, “Production of recombinant intact and N-terminal truncated lipoxygenase isozyme III expressed in Saccharomyces cerevisiae and its influence on glutenin polypeptides” (Food Chemistry: Molecular Sciences, 2024).

Key:
recombinant Mini-LOX III = target: T1, recombinant Mini-LOX III (Triticum aestivum, UniProt F1DTB8); assay: conjugated diene absorbance at […] nm, Lineweaver-Burk; format: biochemical; conditions: crude yeast extract in 50 mM phosphate pH 7.6 (extraction buffer); methods print linoleic acid range as 10 mM to 70 mM, conflicting with Km in µM
T1 construct: gene LOX3; cut placed by alignment to soybean Mini-LOX STPIEFHSFQ; pGK423, S. cerevisiae BY4741; crude soluble extract
T1 sequence (F1DTB8 343-878 limits assumed): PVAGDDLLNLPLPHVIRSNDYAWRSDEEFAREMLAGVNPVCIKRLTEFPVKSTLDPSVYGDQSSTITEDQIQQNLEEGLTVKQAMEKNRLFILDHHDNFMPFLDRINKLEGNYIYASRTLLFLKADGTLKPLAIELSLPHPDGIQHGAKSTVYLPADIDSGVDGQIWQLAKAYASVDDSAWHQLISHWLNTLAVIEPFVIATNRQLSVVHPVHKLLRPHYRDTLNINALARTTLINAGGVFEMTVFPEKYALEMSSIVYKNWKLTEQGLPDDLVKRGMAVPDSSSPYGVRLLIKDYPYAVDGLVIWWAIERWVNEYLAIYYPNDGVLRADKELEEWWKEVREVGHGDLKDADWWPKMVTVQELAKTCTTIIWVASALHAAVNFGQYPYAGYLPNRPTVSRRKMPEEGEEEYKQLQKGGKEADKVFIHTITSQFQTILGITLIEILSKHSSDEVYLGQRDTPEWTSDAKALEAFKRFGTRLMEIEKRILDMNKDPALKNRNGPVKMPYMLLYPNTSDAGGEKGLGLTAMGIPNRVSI

recombinant LOX III = target: T2, recombinant LOX III (Triticum aestivum, UniProt F1DTB8); assay: as above; format: biochemical; conditions: crude yeast extract in 50 mM phosphate pH 7.6 (extraction buffer); methods print linoleic acid range as 10 mM to 70 mM, conflicting with Km in µM
T2 construct: gene LOX3; full length, 878 residues, 95 kDa; codon-optimised; LOX III-2A-mClover3 in pGK423, S. cerevisiae BY4741; crude soluble extract
T2 sequence (F1DTB8 1-878): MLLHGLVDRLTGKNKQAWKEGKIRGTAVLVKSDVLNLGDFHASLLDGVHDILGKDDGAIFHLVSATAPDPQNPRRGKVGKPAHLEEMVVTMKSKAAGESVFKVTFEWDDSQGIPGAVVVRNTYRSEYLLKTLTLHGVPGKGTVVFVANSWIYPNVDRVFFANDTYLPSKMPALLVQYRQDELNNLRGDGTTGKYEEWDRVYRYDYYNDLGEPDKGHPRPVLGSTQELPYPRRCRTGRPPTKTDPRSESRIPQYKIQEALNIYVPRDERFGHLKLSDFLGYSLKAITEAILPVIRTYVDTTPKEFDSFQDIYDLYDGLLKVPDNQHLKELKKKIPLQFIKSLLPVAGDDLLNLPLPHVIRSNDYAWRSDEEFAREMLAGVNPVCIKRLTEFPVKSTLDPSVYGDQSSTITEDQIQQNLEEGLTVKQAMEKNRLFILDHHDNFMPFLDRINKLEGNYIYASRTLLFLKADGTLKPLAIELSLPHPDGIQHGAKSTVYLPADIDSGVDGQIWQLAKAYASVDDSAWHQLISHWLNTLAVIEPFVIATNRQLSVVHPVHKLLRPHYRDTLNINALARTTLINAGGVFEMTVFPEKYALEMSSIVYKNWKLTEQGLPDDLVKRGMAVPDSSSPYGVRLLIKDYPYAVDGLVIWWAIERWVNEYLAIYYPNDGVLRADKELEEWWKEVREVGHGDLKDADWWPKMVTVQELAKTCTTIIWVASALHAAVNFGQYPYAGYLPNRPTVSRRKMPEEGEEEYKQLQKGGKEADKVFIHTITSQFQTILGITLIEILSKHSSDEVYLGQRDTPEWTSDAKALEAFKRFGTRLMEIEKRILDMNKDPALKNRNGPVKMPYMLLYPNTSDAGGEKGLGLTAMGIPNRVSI

CCCCC/C=C\C/C=C\CCCCCCCC(=O)O [linoleic acid]
Km (recombinant Mini-LOX III): 21.3 µM | Km (recombinant LOX III): 25.7 µM
